Measurements taken from patent US20250186542A1, “COMPOSITION CONTAINING PEPTIDE COMPOUND FOR USE WITH SURFACTANT” (CHUGAI SEIYAKU KABUSHIKI KAISHA, priority 2022, published 2025).
≈ marks a conversion by molar mass, not a printed value. Bridge positions count the residues as written; N and C are the ends. Square brackets hold non-standard residues; d marks the D form. Peptide text beside a SMILES is read from it. * marks the point of attachment. ξ: configuration not given here. hPhe(3-Cl-4-CF3) = N[C@@H](CCc1ccc(C(F)(F)F)c(Cl)c1)C(=O)O; Phe(3-Cl) = N[C@@H](Cc1cccc(Cl)c1)C(=O)O; NMeCha = CN[C@@H](CC1CCCCC1)C(=O)O; NMeChg = CN[C@H](C(=O)O)C1CCCCC1; NMeF = CN[C@@H](Cc1ccccc1)C(=O)O; NMeD = CN[C@@H](CC(=O)O)C(=O)O; dNMeD = CN[C@H](CC(=O)O)C(=O)O; dNMeL = CN[C@H](CC(C)C)C(=O)O; ξIle = CC[C@H](C)C(N)C(=O)O; NMeS = CN[C@@H](CO)C(=O)O; Pip = O=C(O)[C@@H]1CCCCN1; Nle = CCCC[C@H](N)C(=O)O; Piperidide = C1CCN(*)CC1; Pyrrolidide = C1CCN(*)C1; dNMeA = CN[C@H](C)C(=O)O; Ac5c = NC1(C(=O)O)CCCC1; Sar = CNCC(=O)O; Propyl = CCC*

Experiments:
Caco-2 cells = assay: Evaluation of Caco-2 membrane permeability; format: in vitro ADME; details: HBSS pH 7.4 4% BSA basal, 180 minutes; for Without 5 mM lauroyl-L-carnitine Permeability coefficient (Caco-2 Papp): 10 µM compound in FaSSIF/HBSS pH 6.5 apical, no lauroyl-L-carnitine; for With 5 mM lauroyl-L-carnitine Permeability coefficient (Caco-2 Papp): 10 µM compound, 5 mM lauroyl-L-carnitine in FaSSIF/HBSS pH 6.5 apical
Method: (§1) In the above measurements, a Pgp inhibitor, such as Zosquidar, can be added to the FaSSIF/HBSS buffer and the HBSS buffer, respectively.
(§2) After step (step 1) and before step (step 2) of the above, pre-incubation can be performed by allowing each well to stand at 5% CO2, 37° C., 80 rpm for 20 to 24 hours.
(§3) After pre-incubation, the solution at the Basal side can be removed and washed, and a new solution of the same composition can be added. A Pgp inhibitor can also be added to the new solution. When the pre-incubation is performed, it is preferable that a DMEM solution (pH 7.4) containing 4% BSA is used instead of the HBSS buffer (pH 7.4).
(§4) In addition, as the concentration of the substance to be evaluated on the donor side used in the calculation of the permeability coefficient in step (step 3) above, the concentration when initially added can be used, or the concentration measured by collecting the solution at the Apical side before the start of pre-incubation or the start of shaking in the above step (step 2) can be used. In particular, when the preincubation is performed, it is preferable to use the concentration of the solution at the Apical side collected before pre-incubation.

[1] = Evaluation of solubility in 50 mM phosphate buffer (PPB, pH 6.5); format: physicochemical
Method: To an excessive amount of a lyophilized powder of the compound, 50 mM phosphate buffer (PPB, pH 6.5) is added, and after shaking (37° C., 1 atm, 1800 rpm, for 22 to 24 hours), the mixture is filtered with a filter, and the compound concentration of the filtrate is measured by LC/MS/MS. Solubility (g/mL) is calculated from the measured compound concentration.
Solubility (μg/mL) was calculated from the measured compound concentration.

[2] = Evaluation of Caco-2 membrane permeability; format: in vitro ADME; details: human
Method: as §1, §2, §3, §4

[3] = 50 mM phosphate buffer pH 6.5, 37° C., 1 atm, 22 to 24 hours, read-out: PPB solubility
[4] = Caco-2, With 5 mM lauroyl-L-carnitine Permeability coefficient (Caco-2 Papp)
[5] = Caco-2, Without 5 mM lauroyl-L-carnitine Permeability coefficient (Caco-2 Papp)

Row | Compound | Without 5 mM lauroyl-L-carnitine Permeability coefficient (Caco-2 Papp) (Caco-2 cells) [×10⁻⁶ cm/s] | With 5 mM lauroyl-L-carnitine Permeability coefficient (Caco-2 Papp) (Caco-2 cells) [×10⁻⁶ cm/s] | solubility [1, 3] [µg/mL] | Papp A→B at 180 min [2, 4] [×10⁻⁶ cm/s] | Papp A→B at 180 min [2, 5] [×10⁻⁶ cm/s] | solubility ([1]; pH 6.5) [µg/mL] | Papp A→B at 180 min ([2]; Caco-2, 5 mM lauroyl-L-carnitine in FaSSIF/HBSS pH 6.5 apical, HBSS pH 7.4 4% BSA basal, 180 minutes) [×10⁻⁶ cm/s]
1 | CC[C@H](C)[C@@H]1NC(=O)[C@H](CC(C)C)N(C)C(=O)CC(C(=O)N2CCOCC2)N(C)C(=O)[C@H](C2CCCC2)N(C)C(=O)C2(CCCC2)NC(=O)[C@@H]2CCCN2C(=O)[C@H](CCc2ccc(C(F)(F)F)c(Cl)c2)NC(=O)CN(C)C(=O)[C@H](CC2CCCCC2)N(C)C(=O)[C@@H]2CCN2C(=O)[C@H](C)N(C)C1=O (single isomer, unassigned) [Compound 2] | 0.0491 | 0.265 | 1.18 (≈ 0.81 µM) | – | – | – | –
2 | CC[C@H](C)[C@@H]1NC(=O)[C@H](CC(C)C)N(C)C(=O)CC(C(=O)N2CCOCC2)N(C)C(=O)[C@H](C2CCCC2)N(C)C(=O)C2(CCCC2)NC(=O)[C@@H]2CCCN2C(=O)[C@H](CCc2ccc(C(F)(F)F)c(Cl)c2)NC(=O)CN(C)C(=O)[C@H](Cc2ccc(C)cc2)N(CC)C(=O)[C@@H]2CCN2C(=O)[C@H](C)N(C)C1=O (single isomer, unassigned) [Compound 3] | – | – | – | 0.366 | 0.215 | 1.81 (≈ 1.22 µM) | –
3 | CC[C@H](C)[C@@H]1NC(=O)[C@H](CC(C)C)N(C)C(=O)CC(C(=O)N2CCCCC2)N(C)C(=O)[C@H](C2CCCC2)N(C)C(=O)C2(CCCC2)NC(=O)[C@@H]2CCCN2C(=O)[C@H](CCc2ccc(C(F)(F)F)c(Cl)c2)NC(=O)CN(C)C(=O)[C@H](CC2CCCCC2)N(C)C(=O)[C@@H]2CCN2C(=O)[C@H](C)N(C)C1=O (single isomer, unassigned) [Compound 8] | 0.042 | 0.154 | 1.13 (≈ 0.777 µM) | – | – | – | –
4 | CC[C@H](C)[C@@H]1NC(=O)C(CC(C)C)N(C)C(=O)CC(C(=O)N(C)C)N(C)C(=O)[C@H](C2CCCC2)N(C)C(=O)C(C)NC(=O)C(C)N(C)C(=O)[C@H](CCc2ccc(C(F)(F)F)c(Cl)c2)NC(=O)CN(C)C(=O)[C@H](CC2CCCCC2)N(C)C(=O)[C@@H]2CCN2C(=O)[C@H](C)N(C)C1=O (single isomer, unassigned) [Compound 9] | 0.00949 | 0.0214 | 9.18 (≈ 6.74 µM) | – | – | – | –
5 | CC[C@H](C)[C@@H]1NC(=O)[C@H](CC(C)C)N(C)C(=O)CC(C(=O)N2CCOCC2)N(C)C(=O)[C@H](C2CCCC2)N(C)C(=O)C2(CCCC2)NC(=O)[C@@H]2CCCN2C(=O)[C@H](CCc2ccc(C(F)(F)F)c(Cl)c2)NC(=O)CN(C)C(=O)[C@H](C2CCCC2)N(C)C(=O)[C@@H]2CCN2C(=O)[C@H](C)NC1=O (single isomer, unassigned) [Compound 10] | <0.00976 | – | 101 (≈ 71.6 µM) | – | – | – | 0.014
6 | CCCCN1CC(=O)N(C)[C@@H](CC(C)C)C(=O)N[C@@H](Cc2ccc(C(=O)NS(C)(=O)=O)c(OC)c2)C(=O)N(C)[C@@H](CC(C)C)C(=O)N(C)[C@@H](CC(C)C)C(=O)NC(C(=O)N2CCCCC2)CC(=O)NC(CC(C)C)C(=O)N(C)[C@@H](Cc2ccccc2)C(=O)NC(C(C)C)C(=O)N(C)[C@@H](CC(C)C)C(=O)N[C@@H]([C@H](C)O)C1=O (single isomer, unassigned) [Compound 11] | – | – | – | 0.0302 | 0.00921 | 16.2 (≈ 10.3 µM) | –
7 | CC[C@@H](C)[C@H]1NC(=O)[C@@H](Cc2ccccc2)N(C)C(=O)CN(C)C(=O)C[C@@H](C(=O)N2CCCCC2)NC(=O)[C@@H](CC(C)C)N(C)C(=O)[C@@H](COC(C)(C)C)NC(=O)[C@@H](CC(C)C)N(C)C(=O)[C@@H](CCc2ccccc2)N(C)C(=O)CN(C)C(=O)[C@@H]([C@H](C)O)NC(=O)[C@@H](CC(C)C)N(C)C1=O (stereo in doubt) [Compound 7] | <0.0944 | 0.526 | 5.76 (≈ 4.11 µM) | – | – | – | –
8 | CC[C@H](C)C1NC(=O)[C@@H](CC(C)C)N(C)C(=O)C[C@H](C(=O)N2CCCCC2)N(C)C(=O)[C@H](C2CCCCC2)N(C)C(=O)C2(CCCC2)NC(=O)[C@@H]2CCCN2C(=O)[C@H](CCc2ccc(C(F)(F)F)c(Cl)c2)NC(=O)CN(C)C(=O)[C@H](CC2CCCCC2)N(C)C(=O)CN(C)C(=O)CN(C)C1=O (some centres unmarked) [Compound 1] ([dNMeL][ξIle][Sar][Sar][NMeCha][Sar][hPhe(3-Cl-4-CF3)]P[Ac5c][NMeChg][dNMeD]-Piperidide; lactam N-11) | 0.0142 | 0.253 | 1.12 (≈ 0.777 µM) | – | – | – | –
9 | CCCC[C@@H]1NC(=O)[C@@H]2CCCN2C(=O)[C@H](CCCC)NC(=O)[C@@H](C)N(C)C(=O)C[C@@H](C(=O)N2CCCC2)N(C)C(=O)[C@@H]2CCCN2C(=O)[C@H]([C@@H](C)CC)NC(=O)[C@@H]2CCCCN2C(=O)[C@H](Cc2cccc(Cl)c2)NC(=O)[C@H](COCCC)N(C)C(=O)[C@H](Cc2ccccc2)N(C)C1=O [Compound 5] ([dNMeA][Nle]P[Nle][NMeF][NMeS](Propyl)[Phe(3-Cl)][Pip]IP[NMeD]-Pyrrolidide; lactam N-11) | 0.00372 | 0.0264 | – | – | – | – | –
